In paper PMC6019134, “1,2,6-Thiadiazinones as Novel Narrow Spectrum Calcium/Calmodulin-Dependent Protein Kinase Kinase 2 (CaMKK2) Inhibitors” (Molecules : A Journal of Synthetic Chemistry and Natural …, 2018):

What was measured:
Test in all cases: DSF thermal shift, kinase panel
Assay type in all cases: binding
Conditions in all cases: 10 μM compound
BRAFA = biological target: T1, BRAFA (Homo sapiens, UniProt P15056)
T1 construct: purchased in-house (home-made panel, SGC-style construct names)
How it was run: (§1)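 Recombinant kinase (E. coli-expressed, His-tag removed by TEV, SEC-polished) at 1 µM in 100 mM K2HPO4 pH 7.5, 150 mM NaCl, 10% glycerol with dye, plus 10 µM compound. Heated 25 °C to 95 °C at 0.05 °C/s; dTm from Boltzmann fits versus 0.2% DMSO control.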

CSNK1G1 = biological target: T2, CSNK1G1 (Homo sapiens, UniProt Q9HCP0)
T2 construct: purchased in-house (home-made panel, SGC-style construct names)
T2 sequence (Q9HCP0 whole entry): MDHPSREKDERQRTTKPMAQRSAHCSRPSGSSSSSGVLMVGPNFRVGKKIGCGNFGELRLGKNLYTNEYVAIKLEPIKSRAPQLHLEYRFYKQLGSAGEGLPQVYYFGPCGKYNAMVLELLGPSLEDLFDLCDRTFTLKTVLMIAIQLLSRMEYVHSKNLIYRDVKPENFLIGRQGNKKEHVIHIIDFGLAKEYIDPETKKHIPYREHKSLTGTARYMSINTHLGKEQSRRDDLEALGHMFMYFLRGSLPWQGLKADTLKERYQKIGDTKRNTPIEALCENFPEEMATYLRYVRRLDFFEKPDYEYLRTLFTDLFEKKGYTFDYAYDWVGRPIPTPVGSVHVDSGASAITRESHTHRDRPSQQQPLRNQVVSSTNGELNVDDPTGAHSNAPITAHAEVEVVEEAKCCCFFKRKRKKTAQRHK
How it was run: as §1

CDC42BPA = biological target: T3, CDC42BPA (Homo sapiens, UniProt Q5VT25)
T3 construct: purchased in-house (home-made panel, SGC-style construct names)
T3 sequence (Q5VT25 whole entry): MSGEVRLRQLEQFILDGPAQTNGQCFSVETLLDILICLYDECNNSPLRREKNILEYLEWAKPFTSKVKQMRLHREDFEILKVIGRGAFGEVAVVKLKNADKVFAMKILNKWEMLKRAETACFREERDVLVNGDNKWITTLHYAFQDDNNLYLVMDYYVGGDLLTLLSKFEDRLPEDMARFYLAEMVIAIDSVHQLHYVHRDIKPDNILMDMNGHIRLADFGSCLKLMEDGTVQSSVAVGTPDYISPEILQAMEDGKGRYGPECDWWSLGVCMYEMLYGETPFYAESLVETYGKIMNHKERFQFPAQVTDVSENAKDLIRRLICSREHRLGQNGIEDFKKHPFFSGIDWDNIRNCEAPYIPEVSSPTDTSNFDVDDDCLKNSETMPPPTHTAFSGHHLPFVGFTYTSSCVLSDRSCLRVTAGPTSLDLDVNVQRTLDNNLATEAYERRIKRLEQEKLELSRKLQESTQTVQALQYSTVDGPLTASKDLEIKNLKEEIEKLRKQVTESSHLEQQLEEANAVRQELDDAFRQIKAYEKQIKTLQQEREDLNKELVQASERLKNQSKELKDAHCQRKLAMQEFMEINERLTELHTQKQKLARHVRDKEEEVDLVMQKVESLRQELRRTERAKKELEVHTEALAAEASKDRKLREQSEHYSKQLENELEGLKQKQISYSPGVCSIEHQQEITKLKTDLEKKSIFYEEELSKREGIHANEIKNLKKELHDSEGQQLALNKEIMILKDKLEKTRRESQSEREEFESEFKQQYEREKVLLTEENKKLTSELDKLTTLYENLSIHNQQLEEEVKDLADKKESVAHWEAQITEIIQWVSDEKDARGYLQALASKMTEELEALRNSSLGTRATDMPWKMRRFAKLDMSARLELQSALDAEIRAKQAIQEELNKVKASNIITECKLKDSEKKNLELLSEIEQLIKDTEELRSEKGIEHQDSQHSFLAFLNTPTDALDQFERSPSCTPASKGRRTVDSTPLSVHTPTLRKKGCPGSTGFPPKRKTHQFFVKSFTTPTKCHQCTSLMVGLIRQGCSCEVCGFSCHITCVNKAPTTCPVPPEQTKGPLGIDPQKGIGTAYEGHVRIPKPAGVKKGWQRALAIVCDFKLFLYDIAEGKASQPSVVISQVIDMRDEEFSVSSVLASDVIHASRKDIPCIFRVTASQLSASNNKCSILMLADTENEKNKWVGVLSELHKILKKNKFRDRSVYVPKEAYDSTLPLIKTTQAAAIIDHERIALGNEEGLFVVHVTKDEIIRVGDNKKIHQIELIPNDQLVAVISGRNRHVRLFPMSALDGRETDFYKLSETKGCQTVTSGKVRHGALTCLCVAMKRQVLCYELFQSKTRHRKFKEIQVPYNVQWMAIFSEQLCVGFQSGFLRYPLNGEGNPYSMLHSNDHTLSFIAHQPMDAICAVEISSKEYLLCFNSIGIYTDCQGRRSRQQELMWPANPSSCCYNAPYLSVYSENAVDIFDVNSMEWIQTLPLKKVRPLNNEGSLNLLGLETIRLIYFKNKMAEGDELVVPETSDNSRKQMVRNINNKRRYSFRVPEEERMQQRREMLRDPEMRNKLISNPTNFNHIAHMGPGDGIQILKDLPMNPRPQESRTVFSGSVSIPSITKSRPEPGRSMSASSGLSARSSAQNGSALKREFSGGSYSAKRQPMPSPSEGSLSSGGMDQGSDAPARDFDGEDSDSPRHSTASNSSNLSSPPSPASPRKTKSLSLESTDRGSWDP
How it was run: as §1

MAPK1A = biological target: T4, MAPK1A (Homo sapiens, UniProt P28482)
T4 construct: purchased in-house (home-made panel, SGC-style construct names)
T4 sequence (P28482 whole entry): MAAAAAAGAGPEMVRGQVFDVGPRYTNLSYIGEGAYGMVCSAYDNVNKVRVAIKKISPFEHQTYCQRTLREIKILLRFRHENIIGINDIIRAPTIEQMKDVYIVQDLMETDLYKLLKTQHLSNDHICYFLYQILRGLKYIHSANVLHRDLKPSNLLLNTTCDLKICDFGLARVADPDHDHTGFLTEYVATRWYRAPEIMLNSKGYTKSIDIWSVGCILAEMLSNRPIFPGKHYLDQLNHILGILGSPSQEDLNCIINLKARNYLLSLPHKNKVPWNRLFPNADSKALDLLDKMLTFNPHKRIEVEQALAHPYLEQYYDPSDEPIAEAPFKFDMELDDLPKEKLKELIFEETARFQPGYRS
How it was run: as §1

PHKG2A = biological target: T5, PHKG2A (Homo sapiens, UniProt P15735)
T5 construct: purchased in-house (home-made panel, SGC-style construct names)
T5 sequence (P15735 1-406): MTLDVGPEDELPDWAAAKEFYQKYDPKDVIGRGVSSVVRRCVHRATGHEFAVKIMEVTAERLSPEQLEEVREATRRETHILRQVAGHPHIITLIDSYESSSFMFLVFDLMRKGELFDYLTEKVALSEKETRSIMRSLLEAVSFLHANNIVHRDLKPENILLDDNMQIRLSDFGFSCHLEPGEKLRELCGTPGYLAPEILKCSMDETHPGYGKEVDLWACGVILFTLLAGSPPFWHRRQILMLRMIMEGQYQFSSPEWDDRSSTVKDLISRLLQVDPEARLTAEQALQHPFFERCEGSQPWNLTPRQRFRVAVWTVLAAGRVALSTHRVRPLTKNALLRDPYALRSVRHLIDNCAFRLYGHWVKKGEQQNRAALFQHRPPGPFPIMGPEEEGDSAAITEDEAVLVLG
How it was run: as §1

MAPK14B = biological target: T6, MAPK14B (Homo sapiens, UniProt Q16539)
T6 construct: purchased in-house (home-made panel, SGC-style construct names)
T6 sequence (Q16539 whole entry): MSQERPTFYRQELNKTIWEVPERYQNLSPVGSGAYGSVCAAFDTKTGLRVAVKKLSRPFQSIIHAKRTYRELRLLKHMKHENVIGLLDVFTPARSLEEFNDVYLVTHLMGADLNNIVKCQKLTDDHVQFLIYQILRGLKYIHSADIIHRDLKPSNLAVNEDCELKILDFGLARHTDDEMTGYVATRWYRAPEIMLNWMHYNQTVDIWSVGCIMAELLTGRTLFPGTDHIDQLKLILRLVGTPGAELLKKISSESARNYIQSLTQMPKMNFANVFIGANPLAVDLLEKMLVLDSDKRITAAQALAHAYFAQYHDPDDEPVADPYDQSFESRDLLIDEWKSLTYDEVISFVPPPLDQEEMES
How it was run: as §1

RPS6KA5A = biological target: T7, RPS6KA5A (Homo sapiens, UniProt O75582)
T7 construct: purchased in-house (home-made panel, SGC-style construct names)
T7 sequence (O75582 whole entry): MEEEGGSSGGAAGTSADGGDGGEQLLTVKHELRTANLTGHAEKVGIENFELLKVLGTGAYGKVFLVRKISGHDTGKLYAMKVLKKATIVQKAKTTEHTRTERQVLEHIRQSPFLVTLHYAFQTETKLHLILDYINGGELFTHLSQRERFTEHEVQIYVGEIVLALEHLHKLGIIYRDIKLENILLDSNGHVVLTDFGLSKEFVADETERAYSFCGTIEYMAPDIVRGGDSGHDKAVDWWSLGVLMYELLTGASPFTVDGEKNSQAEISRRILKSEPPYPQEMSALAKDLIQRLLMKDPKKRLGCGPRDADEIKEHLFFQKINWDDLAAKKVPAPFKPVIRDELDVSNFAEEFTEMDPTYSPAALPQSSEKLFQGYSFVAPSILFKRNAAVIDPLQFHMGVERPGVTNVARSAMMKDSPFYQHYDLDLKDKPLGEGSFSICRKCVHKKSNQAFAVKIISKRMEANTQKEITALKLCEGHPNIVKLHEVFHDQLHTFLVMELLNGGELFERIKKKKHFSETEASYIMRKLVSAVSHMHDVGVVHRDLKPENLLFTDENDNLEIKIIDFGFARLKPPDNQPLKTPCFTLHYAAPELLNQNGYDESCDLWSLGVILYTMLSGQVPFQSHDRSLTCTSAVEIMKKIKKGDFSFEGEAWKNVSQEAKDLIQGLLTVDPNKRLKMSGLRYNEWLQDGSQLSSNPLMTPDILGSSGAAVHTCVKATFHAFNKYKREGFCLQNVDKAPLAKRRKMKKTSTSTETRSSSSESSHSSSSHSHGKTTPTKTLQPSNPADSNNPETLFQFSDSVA
How it was run: as §1

CAMK1D = biological target: T8, CAMK1D (Homo sapiens, UniProt Q8IU85)
T8 construct: purchased in-house (home-made panel, SGC-style construct names)
T8 sequence (Q8IU85 whole entry): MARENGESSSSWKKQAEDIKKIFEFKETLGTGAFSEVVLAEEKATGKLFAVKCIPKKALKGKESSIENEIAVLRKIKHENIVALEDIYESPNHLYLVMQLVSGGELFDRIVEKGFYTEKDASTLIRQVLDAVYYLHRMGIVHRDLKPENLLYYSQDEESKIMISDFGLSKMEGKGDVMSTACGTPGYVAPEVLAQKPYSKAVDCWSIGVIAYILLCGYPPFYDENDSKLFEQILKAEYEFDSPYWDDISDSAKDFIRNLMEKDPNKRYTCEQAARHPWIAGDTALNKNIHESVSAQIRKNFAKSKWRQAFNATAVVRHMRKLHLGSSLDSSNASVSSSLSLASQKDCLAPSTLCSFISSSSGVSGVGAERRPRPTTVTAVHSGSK
How it was run: as §1

STK3 = biological target: T9, STK3 (Homo sapiens, UniProt Q13188)
T9 construct: purchased in-house (home-made panel, SGC-style construct names)
T9 sequence (Q13188 1-491): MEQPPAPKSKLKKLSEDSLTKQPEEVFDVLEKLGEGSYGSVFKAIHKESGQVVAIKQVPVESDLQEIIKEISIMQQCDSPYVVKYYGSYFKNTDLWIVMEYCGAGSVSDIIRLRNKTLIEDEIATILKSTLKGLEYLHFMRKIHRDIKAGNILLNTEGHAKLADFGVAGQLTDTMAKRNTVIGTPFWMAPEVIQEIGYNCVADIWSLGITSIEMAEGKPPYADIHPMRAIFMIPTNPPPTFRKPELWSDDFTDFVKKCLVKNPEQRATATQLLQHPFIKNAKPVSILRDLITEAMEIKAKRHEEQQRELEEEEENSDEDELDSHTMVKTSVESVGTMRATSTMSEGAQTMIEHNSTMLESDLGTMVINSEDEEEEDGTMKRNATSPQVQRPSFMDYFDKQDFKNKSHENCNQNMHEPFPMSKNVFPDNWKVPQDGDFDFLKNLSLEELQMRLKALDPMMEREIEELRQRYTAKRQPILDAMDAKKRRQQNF
How it was run: as §1

CAMKK1 = biological target: T10, CAMKK1 (Homo sapiens, UniProt Q8N5S9)
T10 construct: purchased in-house (home-made panel, SGC-style construct names)
How it was run: as §1

T1 sequence (P15056 whole entry): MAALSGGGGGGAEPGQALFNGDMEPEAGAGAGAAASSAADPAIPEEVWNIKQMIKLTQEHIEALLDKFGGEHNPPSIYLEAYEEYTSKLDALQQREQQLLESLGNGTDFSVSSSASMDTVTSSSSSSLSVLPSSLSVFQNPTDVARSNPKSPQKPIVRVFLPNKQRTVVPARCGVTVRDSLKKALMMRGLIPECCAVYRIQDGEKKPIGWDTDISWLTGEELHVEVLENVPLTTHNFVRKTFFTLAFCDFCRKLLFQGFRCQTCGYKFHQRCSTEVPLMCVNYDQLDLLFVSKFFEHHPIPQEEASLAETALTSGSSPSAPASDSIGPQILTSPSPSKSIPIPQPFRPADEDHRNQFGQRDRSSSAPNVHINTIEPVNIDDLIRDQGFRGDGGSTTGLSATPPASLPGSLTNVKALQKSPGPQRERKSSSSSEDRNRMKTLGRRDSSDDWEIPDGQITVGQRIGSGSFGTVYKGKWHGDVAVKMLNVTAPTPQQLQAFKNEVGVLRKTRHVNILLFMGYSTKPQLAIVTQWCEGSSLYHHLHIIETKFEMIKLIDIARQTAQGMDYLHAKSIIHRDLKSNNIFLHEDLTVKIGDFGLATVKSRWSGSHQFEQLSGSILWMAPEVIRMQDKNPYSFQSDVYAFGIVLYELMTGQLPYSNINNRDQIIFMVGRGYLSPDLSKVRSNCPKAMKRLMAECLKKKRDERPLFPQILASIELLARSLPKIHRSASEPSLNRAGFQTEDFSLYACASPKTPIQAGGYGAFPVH

CNC(=O)c1ccccc1Nc1nsnc(Nc2ccc(N3CCOCC3)cc2)c1=O [Compound 5, N-Methyl-2-({5-[(4-morpholinophenyl)amino]-4-oxo-4H-1,2,6-thiadiazin-3-yl}amino)benzamide]
ΔTm at 10 µM (BRAFA): 0.4 °C | ΔTm at 10 µM (CSNK1G1): 0 °C | ΔTm at 10 µM (CDC42BPA): -0.6 °C | ΔTm at 10 µM (MAPK1A): -0.3 °C | ΔTm at 10 µM (PHKG2A): 0.2 °C | ΔTm at 10 µM (MAPK14B): -0.3 °C | ΔTm at 10 µM (RPS6KA5A): -1.1 °C | ΔTm at 10 µM (CAMK1D): -0.9 °C | ΔTm at 10 µM (STK3): -0.3 °C | ΔTm at 10 µM (CAMKK1): -0.4 °C

CNC(=O)c1ccccc1Nc1nsnc(Nc2cccc(CS(C)(=O)=O)c2)c1=O [Compound 4, N-Methyl-2-([5-({3-[(methylsulfonyl)methyl]phenyl}amino)-4-oxo-4H-1,2,6-thiadiazin-3-yl]-amino}-benzamide]
ΔTm at 10 µM (BRAFA): 0.1 °C | ΔTm at 10 µM (CSNK1G1): 0.3 °C | ΔTm at 10 µM (CDC42BPA): -0.8 °C | ΔTm at 10 µM (MAPK1A): -0.3 °C | ΔTm at 10 µM (PHKG2A): 0.2 °C | ΔTm at 10 µM (MAPK14B): -0.2 °C | ΔTm at 10 µM (RPS6KA5A): -1.2 °C | ΔTm at 10 µM (CAMK1D): -1.3 °C | ΔTm at 10 µM (STK3): -0.4 °C | ΔTm at 10 µM (CAMKK1): -0.4 °C

Cc1ccc(Nc2nsnc(Nc3cccc(C(N)=O)c3)c2=O)cc1O [Compound 1, 3-({5-[(3-Hydroxy-4-methylphenyl)amino]-4-oxo-4H-1,2,6-thiadiazin-3-yl}amino)benzamide]
ΔTm at 10 µM (BRAFA): -0.1 °C | ΔTm at 10 µM (CSNK1G1): -0.6 °C | ΔTm at 10 µM (CDC42BPA): 0.3 °C | ΔTm at 10 µM (MAPK1A): -0.2 °C | ΔTm at 10 µM (PHKG2A): 0.7 °C | ΔTm at 10 µM (MAPK14B): 0 °C | ΔTm at 10 µM (RPS6KA5A): -0.9 °C | ΔTm at 10 µM (CAMK1D): 0.8 °C | ΔTm at 10 µM (STK3): 0.2 °C | ΔTm at 10 µM (CAMKK1): 0 °C

Cc1ccc(Nc2nsnc(Nc3ccc(C(N)=O)cc3)c2=O)cc1O [Compound 2, 4-({5-[(3-Hydroxy-4-methylphenyl)amino]-4-oxo-4H-1,2,6-thiadiazin-3-yl}amino)benzamide]
ΔTm at 10 µM (BRAFA): 0.2 °C | ΔTm at 10 µM (CSNK1G1): -1 °C | ΔTm at 10 µM (CDC42BPA): 4.8 °C | ΔTm at 10 µM (MAPK1A): 1.4 °C | ΔTm at 10 µM (PHKG2A): 2.4 °C | ΔTm at 10 µM (MAPK14B): 0.6 °C | ΔTm at 10 µM (RPS6KA5A): 1.7 °C | ΔTm at 10 µM (CAMK1D): 4.3 °C | ΔTm at 10 µM (STK3): 2.1 °C | ΔTm at 10 µM (CAMKK1): 3.7 °C

Cc1ccc(Nc2nsnc(Nc3ccc4c(c3)CS(=O)(=O)C4)c2=O)cc1O [Compound 3, 3-[(2,2-Dioxido-1,3-dihydrobenzo[c]thiophen-5-yl)amino]-5-[(3-hydroxy-4-methylphenyl)amino]-4H-1,2,6-thiadiazin-4-one]
ΔTm at 10 µM (BRAFA): 0.7 °C | ΔTm at 10 µM (CSNK1G1): -0.7 °C | ΔTm at 10 µM (CDC42BPA): 2.3 °C | ΔTm at 10 µM (MAPK1A): 0.1 °C | ΔTm at 10 µM (PHKG2A): 1.6 °C | ΔTm at 10 µM (MAPK14B): 1 °C | ΔTm at 10 µM (RPS6KA5A): -0.3 °C | ΔTm at 10 µM (CAMK1D): 1.4 °C | ΔTm at 10 µM (STK3): 1.1 °C | ΔTm at 10 µM (CAMKK1): 1.4 °C
